Assays:
Type in all cases: functional
Enterococcus faecalis [1] = test: Antibacterial activity against vancomycin-susceptible Enterococcus faecalis ATCC29212 assessed as bacterial growth inhibition incubated for 20 hrs by CLSI based broth microdilution method
Klebsiella pneumoniae = test: Antibacterial activity against Klebsiella pneumoniae ATCC BAA-1902 assessed as bacterial growth inhibition incubated for 20 hrs by CLSI based broth microdilution method
Staphylococcus aureus [2] = test: Antibacterial activity against erythromycin-susceptible Staphylococcus aureus ATCC25923 assessed as bacterial growth inhibition incubated for 20 hrs by CLSI based broth microdilution method
Enterococcus faecalis [3] = test: Antibacterial activity against vancomycin-resistant Enterococcus faecalis ATCC51299 assessed as bacterial growth inhibition incubated for 20 hrs by CLSI based broth microdilution method
Bacillus subtilis = test: Antibacterial activity against penicillin-susceptible Bacillus subtilis ATCC9372 assessed as bacterial growth inhibition incubated for 20 hrs by CLSI based broth microdilution method
Streptococcus pyogenes [4] = test: Antibacterial activity against erythromycin-susceptible Streptococcus pyogenes 1 assessed as bacterial growth inhibition incubated for 20 hrs by CLSI based broth microdilution method
Enterococcus faecium [5] = test: Antibacterial activity against vancomycin-resistant Enterococcus faecium ATCC51559 assessed as bacterial growth inhibition incubated for 20 hrs by CLSI based broth microdilution method
Staphylococcus aureus [6] = test: Antibacterial activity against penicillin-resistant Staphylococcus aureus ATCC31007 assessed as bacterial growth inhibition incubated for 20 hrs by CLSI based broth microdilution method
Staphylococcus aureus [7] = test: Antibacterial activity against Staphylococcus aureus clinical isolate assessed as bacterial growth inhibition incubated for 20 hrs by CLSI based broth microdilution method
Enterococcus faecium [8] = test: Antibacterial activity against vancomycin-susceptible Enterococcus faecium ATCC19434 assessed as bacterial growth inhibition incubated for 20 hrs by CLSI based broth microdilution method
Acinetobacter baumannii = test: Antibacterial activity against Acinetobacter baumannii ATCC19606 assessed as bacterial growth inhibition incubated for 20 hrs by CLSI based broth microdilution method
Escherichia coli [9] = test: Antibacterial activity against wild-type Escherichia coli BW25113 assessed as bacterial growth inhibition incubated for 20 hrs by CLSI based broth microdilution method
[10] = test system: Staphylococcus epidermidis; test: Antibacterial activity against penicillin-resistant Staphylococcus epidermidis clinical isolate assessed as bacterial growth inhibition incubated for 20 hrs by CLSI based broth microdilution method
Staphylococcus aureus [11] = test: Antibacterial activity against methicillin-resistant Staphylococcus aureus ATCC43300 assessed as bacterial growth inhibition incubated for 20 hrs by CLSI based broth microdilution method
Bacillus pumilus = test: Antibacterial activity against penicillin-susceptible Bacillus pumilus CMCC63202 assessed as bacterial growth inhibition incubated for 20 hrs by CLSI based broth microdilution method
Escherichia coli [12] = test: Antibacterial activity against penicillin-susceptible Escherichia coli ATCC25922 assessed as bacterial growth inhibition incubated for 20 hrs by CLSI based broth microdilution method
Streptococcus pyogenes [13] = test: Antibacterial activity against erythromycin-resistant Streptococcus pyogenes 2 clinical isolate assessed as bacterial growth inhibition incubated for 20 hrs by CLSI based broth microdilution method

## C[n+]1cc(-c2ccccc2)c(/C=C/c2ccc(F)cc2)cc1-c1ccccc1.[I-]
Enterococcus faecalis [1]
  MIC: 4 µg/mL
Klebsiella pneumoniae
  MIC: 32 µg/mL
Staphylococcus aureus [2]
  MIC: 0.125 µg/mL
Enterococcus faecalis [3]
  MIC: 2 µg/mL
Bacillus subtilis
  MIC: 0.5 µg/mL
Streptococcus pyogenes [4]
  MIC: 2 µg/mL
Enterococcus faecium [5]
  MIC: 8 µg/mL
Staphylococcus aureus [6]
  MIC: 4 µg/mL
Staphylococcus aureus [7]
  MIC: 1 µg/mL
Enterococcus faecium [8]
  MIC: 4 µg/mL
Acinetobacter baumannii
  MIC: 8 µg/mL
Escherichia coli [9]
  MIC: 8 µg/mL
[10]
  MIC: 2 µg/mL
Staphylococcus aureus [11]
  MIC: 1 µg/mL
Bacillus pumilus
  MIC: 2 µg/mL
Escherichia coli [12]
  MIC: 8 µg/mL
Streptococcus pyogenes [13]
  MIC: 2 µg/mL

## C[n+]1cc(-c2ccccc2)cc(/C=C/c2ccc(Cl)cc2)c1-c1ccccc1.[I-]
Enterococcus faecalis [1]
  MIC: 16 µg/mL
Klebsiella pneumoniae
  MIC: > 64 µg/mL
Staphylococcus aureus [2]
  MIC: 2 µg/mL
Enterococcus faecalis [3]
  MIC: 16 µg/mL
Bacillus subtilis
  MIC: 4 µg/mL
Streptococcus pyogenes [4]
  MIC: 4 µg/mL
Enterococcus faecium [5]
  MIC: 16 µg/mL
Staphylococcus aureus [6]
  MIC: 16 µg/mL
Staphylococcus aureus [7]
  MIC: 2 µg/mL
Enterococcus faecium [8]
  MIC: 16 µg/mL
Acinetobacter baumannii
  MIC: 8 µg/mL
Escherichia coli [9]
  MIC: > 64 µg/mL
[10]
  MIC: 8 µg/mL
Staphylococcus aureus [11]
  MIC: 4 µg/mL
Bacillus pumilus
  MIC: 8 µg/mL
Escherichia coli [12]
  MIC: 64 µg/mL
Streptococcus pyogenes [13]
  MIC: 4 µg/mL

## C[n+]1cc(-c2ccccc2)cc(/C=C/c2ccc(C(F)(F)F)cc2)c1-c1ccccc1.[I-]
Enterococcus faecalis [1]
  MIC: 8 µg/mL
Klebsiella pneumoniae
  MIC: > 64 µg/mL
Staphylococcus aureus [2]
  MIC: 1 µg/mL
Enterococcus faecalis [3]
  MIC: 16 µg/mL
Bacillus subtilis
  MIC: 2 µg/mL
Streptococcus pyogenes [4]
  MIC: 4 µg/mL
Enterococcus faecium [5]
  MIC: 8 µg/mL
Staphylococcus aureus [6]
  MIC: 16 µg/mL
Staphylococcus aureus [7]
  MIC: 2 µg/mL
Enterococcus faecium [8]
  MIC: 16 µg/mL
Acinetobacter baumannii
  MIC: 16 µg/mL
Escherichia coli [9]
  MIC: > 64 µg/mL
[10]
  MIC: 8 µg/mL
Staphylococcus aureus [11]
  MIC: 4 µg/mL
Bacillus pumilus
  MIC: 8 µg/mL
Escherichia coli [12]
  MIC: > 64 µg/mL
Streptococcus pyogenes [13]
  MIC: 2 µg/mL

## CN(C)c1ccc(/C=C/c2cc(-c3ccccc3)[n+](C)cc2-c2ccccc2)cc1.[I-]
Enterococcus faecalis [1]
  MIC: 16 µg/mL
Klebsiella pneumoniae
  MIC: > 64 µg/mL
Staphylococcus aureus [2]
  MIC: 0.5 µg/mL
Enterococcus faecalis [3]
  MIC: 16 µg/mL
Bacillus subtilis
  MIC: 1 µg/mL
Streptococcus pyogenes [4]
  MIC: 8 µg/mL
Enterococcus faecium [5]
  MIC: 16 µg/mL
Staphylococcus aureus [6]
  MIC: 8 µg/mL
Staphylococcus aureus [7]
  MIC: 1 µg/mL
Enterococcus faecium [8]
  MIC: 16 µg/mL
Acinetobacter baumannii
  MIC: 8 µg/mL
Escherichia coli [9]
  MIC: 64 µg/mL
[10]
  MIC: 8 µg/mL
Staphylococcus aureus [11]
  MIC: 2 µg/mL
Bacillus pumilus
  MIC: 8 µg/mL
Escherichia coli [12]
  MIC: 32 µg/mL
Streptococcus pyogenes [13]
  MIC: 8 µg/mL

Reference: ChEMBL document CHEMBL5537115, “New broad-spectrum and potent antibacterial agents with dual-targeting mechanism: Promoting FtsZ polymerization and disrupting bacterial membranes” (Eur J Med Chem, 2024)
